Experimental data taken from paper PMC4187505 (Journal of the American Heart Association: Cardiovascular …, 2014).

Columns and labels:
[1] = target: hlipocalin-2 (human lipocalin-2, neutrophil gelatinase-associated lipocalin) (Homo sapiens, UniProt P80188); test: isothermal titration calorimetry; format: binding
[2] = target: the molecule itself; test: nonreducing SDS-PAGE

hlipocalin-2 (human lipocalin-2, neutrophil gelatinase-associated lipocalin), sequence (P80188 21-198): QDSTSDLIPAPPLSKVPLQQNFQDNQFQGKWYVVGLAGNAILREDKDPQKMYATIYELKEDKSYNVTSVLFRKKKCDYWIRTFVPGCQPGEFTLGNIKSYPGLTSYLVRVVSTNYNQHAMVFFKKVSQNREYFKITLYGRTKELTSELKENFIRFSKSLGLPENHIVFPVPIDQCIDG

Molecule	Kd [1] [µM]	ratio of homodimer/monomer [2] [homodimer/monomer]
CCCCC/C=C\C/C=C\CCCCCCCC(=O)O [linoleic acid]	0.487	
CCCCCCCC/C=C\CCCCCCCC(=O)O [oleic acid]	1470	
human lipocalin‐2 mutant C87A (cysteine 87 replaced by alanine) (natural protein, UniProt P80188 21-198, looked up, contains a significantly lesser amount of polyamines than wild type) QDSTSDLIPAPPLSKVPLQQNFQDNQFQGKWYVVGLAGNAILREDKDPQKMYATIYELKEDKSYNVTSVLFRKKKCDYWIRTFVPGAQPGEFTLGNIKSYPGLTSYLVRVVSTNYNQHAMVFFKKVSQNREYFKITLYGRTKELTSELKENFIRFSKSLGLPENHIVFPVPIDQCIDG		> 10
